Laboratory results taken from patent US9347934B2, “Assays for identifying compounds that modulate bitter taste” (CHROMOCELL CORPORATION, priority 2011, dated 2016).

How the values were obtained:
Assay type in all cases: cell-based
TAS2R41 = molecular target: T1, TAS2R41 (Homo sapiens, UniProt P59536); assay: Calcium fluorescence functional assay, TAS2R41 cell line; conditions: 20 mM tastant; cell line expressing human TAS2R41 and mouse Gα15
T1 construct: expressed in transfected cells
T1 sequence (P59536 1-307): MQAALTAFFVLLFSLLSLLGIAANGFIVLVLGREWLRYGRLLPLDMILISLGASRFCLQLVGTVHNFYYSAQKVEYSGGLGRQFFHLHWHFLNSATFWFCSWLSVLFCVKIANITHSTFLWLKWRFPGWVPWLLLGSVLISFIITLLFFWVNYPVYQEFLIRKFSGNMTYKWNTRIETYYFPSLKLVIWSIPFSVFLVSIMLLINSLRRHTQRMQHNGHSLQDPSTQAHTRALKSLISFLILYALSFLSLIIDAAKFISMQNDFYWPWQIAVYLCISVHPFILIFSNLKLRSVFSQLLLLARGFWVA
Procedure: (§1) Accordingly, each cell line of the panel expressed a human bitter taste receptor and mouse Gα15 signaling protein.
(§2) Probenecid was not included in the load solution.
(§3) After dye loading, cell plates were placed in a fluorescent plate reader (e.g., FDSS6000 (Hamamatsu, Japan)) and receptor stimulation was measured by adding 50 ul of 3× concentrated ligand/agonist stock. Fluorescence was monitored continuously for 10 s before agonist addition and for 100-250 s after stimulation with agonist.
(§4) Receptor Activation is defined as follows: % Activation=[((Maximum signal fluorescence−Minimum signal fluorescence)−(Maximum control fluorescence−Minimum control fluorescence))/(Maximum buffer fluorescence−Minimum buffer fluorescence)]*100 Functional Response=[(Maximum signal fluorescence−Minimum signal fluorescence)−(Maximum control fluorescence−Minimum control fluorescence)] • Signal Fluorescence: refers to the change in fluorescence seen with addition of ligand • Control fluorescence: refers to the change in fluorescence seen with addition of buffer (negative control) • Calcium signals from ligand and control were normalized to the basal fluorescence of the cells prior to the stimulation.
(§5) A concentration analysis was performed and EC50 values were calculated by nonlinear regression using the formula: Y=Bottom+(Top-Bottom)/(1+10^((Log EC50-X)*Hill Slope)), X=log of dose or concentration, Y=Response (increasing as X increases), Top=maximum signal, Bottom=minimum signal.

TAS2R50 = molecular target: T2, TAS2R50 (Homo sapiens, UniProt P59544); assay: Calcium fluorescence functional assay, TAS2R50 cell line; conditions: 20 mM tastant; cell line expressing human TAS2R50 and mouse Gα15
T2 construct: expressed in transfected cells
T2 sequence (P59544 1-299): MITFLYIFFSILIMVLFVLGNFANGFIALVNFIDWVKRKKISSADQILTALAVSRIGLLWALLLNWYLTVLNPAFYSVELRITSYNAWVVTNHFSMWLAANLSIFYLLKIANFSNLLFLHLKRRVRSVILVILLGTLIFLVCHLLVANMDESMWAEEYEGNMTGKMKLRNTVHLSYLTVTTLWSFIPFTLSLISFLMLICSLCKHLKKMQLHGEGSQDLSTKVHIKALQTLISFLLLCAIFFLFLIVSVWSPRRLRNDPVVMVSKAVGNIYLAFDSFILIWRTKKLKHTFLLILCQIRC
Procedure: as §1, §2, §3, §4, §5

TAS2R44 = molecular target: T3, TAS2R44 (Homo sapiens, UniProt P59538); assay: Calcium fluorescence functional assay, TAS2R44 cell line; conditions: for TAS2R44 bitter taste receptor activity (changes in intracellular calcium): 20 mM tastant, cell line expressing human TAS2R44 and mouse Gα15
T3 construct: expressed in transfected cells
T3 sequence (P59538 1-309): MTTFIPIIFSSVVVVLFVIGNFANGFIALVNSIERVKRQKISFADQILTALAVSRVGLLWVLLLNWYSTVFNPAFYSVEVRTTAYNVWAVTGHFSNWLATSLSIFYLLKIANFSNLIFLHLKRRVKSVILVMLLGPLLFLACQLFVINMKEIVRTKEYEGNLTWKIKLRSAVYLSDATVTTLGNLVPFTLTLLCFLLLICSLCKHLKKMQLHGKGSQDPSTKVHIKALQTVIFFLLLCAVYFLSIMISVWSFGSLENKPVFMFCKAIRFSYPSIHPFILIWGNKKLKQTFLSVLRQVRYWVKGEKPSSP
Procedure: as §1, §2, §3, §4, §5

TAS2R49 = molecular target: T4, TAS2R49 (Homo sapiens, UniProt P59543); assay: Calcium fluorescence functional assay, TAS2R49 cell line; conditions: 20 mM tastant; cell line expressing human TAS2R49 and mouse Gα15
T4 construct: expressed in transfected cells
T4 sequence (P59543 1-309): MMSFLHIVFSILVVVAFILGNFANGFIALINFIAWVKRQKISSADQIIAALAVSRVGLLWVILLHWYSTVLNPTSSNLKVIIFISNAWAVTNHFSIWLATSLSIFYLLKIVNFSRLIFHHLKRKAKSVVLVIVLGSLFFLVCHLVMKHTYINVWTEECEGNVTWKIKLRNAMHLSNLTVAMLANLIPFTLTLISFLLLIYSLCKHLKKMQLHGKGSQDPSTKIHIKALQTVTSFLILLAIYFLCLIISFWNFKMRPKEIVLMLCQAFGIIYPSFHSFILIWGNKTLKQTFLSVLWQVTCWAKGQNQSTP
Procedure: as §1, §2, §3, §4, §5

TAS2R16 = molecular target: T5, TAS2R16 (Homo sapiens, UniProt Q9NYV7); assay: Calcium fluorescence functional assay, TAS2R16 cell line; conditions: 20 mM tastant; cell line expressing human TAS2R16 and mouse Gα15
T5 construct: expressed in transfected cells
T5 sequence (Q9NYV7 1-291): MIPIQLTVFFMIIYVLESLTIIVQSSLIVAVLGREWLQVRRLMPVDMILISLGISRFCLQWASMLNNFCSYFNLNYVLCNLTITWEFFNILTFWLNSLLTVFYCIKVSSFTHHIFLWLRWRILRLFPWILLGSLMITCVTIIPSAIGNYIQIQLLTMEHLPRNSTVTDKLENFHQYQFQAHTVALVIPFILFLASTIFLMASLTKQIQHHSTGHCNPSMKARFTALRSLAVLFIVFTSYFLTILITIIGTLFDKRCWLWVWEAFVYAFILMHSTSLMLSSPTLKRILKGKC
Procedure: as §1, §2, §3, §4, §5

TAS2R8 = molecular target: T6, TAS2R8 (Homo sapiens, UniProt Q9NYW2); assay: Calcium fluorescence functional assay, TAS2R8 cell line; conditions: 20 mM tastant; cell line expressing human TAS2R8 and mouse Gα15
T6 construct: expressed in transfected cells
T6 sequence (Q9NYW2 1-309): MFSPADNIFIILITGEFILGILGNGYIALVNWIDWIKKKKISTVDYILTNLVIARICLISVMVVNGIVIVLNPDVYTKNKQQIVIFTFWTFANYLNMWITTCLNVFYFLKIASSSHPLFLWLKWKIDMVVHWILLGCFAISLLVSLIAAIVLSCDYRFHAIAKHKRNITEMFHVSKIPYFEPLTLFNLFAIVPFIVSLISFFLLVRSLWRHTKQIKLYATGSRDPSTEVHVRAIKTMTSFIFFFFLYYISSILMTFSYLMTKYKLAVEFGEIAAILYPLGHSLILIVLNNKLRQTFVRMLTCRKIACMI
Procedure: as §1, §2, §3, §4, §5

| SMILES | TAS2R41 bitter taste receptor activity (changes in intracellular calcium) (TAS2R41) | TAS2R50 bitter taste receptor activity (changes in intracellular calcium) (TAS2R50) | TAS2R44 bitter taste receptor activity (changes in intracellular calcium) (TAS2R44) | TAS2R49 bitter taste receptor activity (changes in intracellular calcium) (TAS2R49) | TAS2R16 bitter taste receptor activity (changes in intracellular calcium) (TAS2R16) | TAS2R8 bitter taste receptor activity (changes in intracellular calcium) (TAS2R8) | EC50 (TAS2R44; increasing concentrations of KCl, TAS2R44 cell line (FIG. 3), read-out: EC50 value, activation of TAS2R44) [mM] |
| --- | --- | --- | --- | --- | --- | --- | --- |
| CC1=CC(=O)NS(=O)(=O)O1 [Acesulfame K] | did not induce | did not induce | induced | did not induce | induced | did not induce |  |
| [Cl-].[K+] [KCl, potassium chloride] | did not induce | did not induce | induced | did not induce | did not induce | did not induce | 5 to 15 |
| CC(O)C(=O)[O-].[K+] (stereo not shown) [Potassium lactate, potassium lactate] | did not induce | did not induce | induced | did not induce | did not induce | did not induce |  |
